Experimental data from patent US20080261994A1, “CYCLOPROPANE COMPOUNDS AND PHARMACEUTICAL USE THEREOF” (Japan Tobacco Inc., priority 2003, published 2008).

What was measured:
Assay type in all cases: biochemical
Recombinant Human MMP-13 = target: T1, Recombinant Human MMP-13 (Homo sapiens, UniProt P45452); test: MMP-13 inhibitory activity (MMP-13 specific fluorescent substrate with quencher); conditions: Experimental Example 3; read-out: IC50 MMP13
T1 construct: purchased R&D systems 511-MM
Summary of the method: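 Recombinant human MMP-13 with test compound, reaction started with quenched fluorogenic peptide 7-MCA-Pro-CHA-Gly-NVal-His-Ala-DPA in Tris-HCl buffer, 1 h at 25 °C, stopped with acetic acid. Fluorescence at Ex 325/Em 405 nm; % inhibition versus enzyme-free and inhibitor-free wells, reported as IC50 (μM).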

MMP-1 = target: T2, MMP-1 (Homo sapiens, UniProt P03956); test: MMP-1 inhibitory action (Type I collagen Activity Measurement kit, FITC-labeled collagen type I); conditions: Experimental Example 2; read-out: IC50 MMP1
T2 sequence (P03956 100-469): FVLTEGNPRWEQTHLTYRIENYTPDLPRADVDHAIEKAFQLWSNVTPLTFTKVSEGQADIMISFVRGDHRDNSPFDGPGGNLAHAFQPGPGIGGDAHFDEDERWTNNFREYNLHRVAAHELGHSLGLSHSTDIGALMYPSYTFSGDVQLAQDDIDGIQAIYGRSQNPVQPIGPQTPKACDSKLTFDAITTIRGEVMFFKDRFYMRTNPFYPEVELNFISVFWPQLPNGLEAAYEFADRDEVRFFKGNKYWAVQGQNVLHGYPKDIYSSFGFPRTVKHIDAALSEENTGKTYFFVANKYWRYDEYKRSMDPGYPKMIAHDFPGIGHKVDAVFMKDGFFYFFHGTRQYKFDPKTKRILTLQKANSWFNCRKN

aggrecanase-1 = target: T3, aggrecanase-1 (Homo sapiens, UniProt O75173); test: Aggrecanase-1 inhibitory action (Particle Assay, GAG release from aggrecan-containing polyacrylamide particles); conditions: Experimental Example 1; read-out: IC50 AG1
T3 sequence (O75173 213-837): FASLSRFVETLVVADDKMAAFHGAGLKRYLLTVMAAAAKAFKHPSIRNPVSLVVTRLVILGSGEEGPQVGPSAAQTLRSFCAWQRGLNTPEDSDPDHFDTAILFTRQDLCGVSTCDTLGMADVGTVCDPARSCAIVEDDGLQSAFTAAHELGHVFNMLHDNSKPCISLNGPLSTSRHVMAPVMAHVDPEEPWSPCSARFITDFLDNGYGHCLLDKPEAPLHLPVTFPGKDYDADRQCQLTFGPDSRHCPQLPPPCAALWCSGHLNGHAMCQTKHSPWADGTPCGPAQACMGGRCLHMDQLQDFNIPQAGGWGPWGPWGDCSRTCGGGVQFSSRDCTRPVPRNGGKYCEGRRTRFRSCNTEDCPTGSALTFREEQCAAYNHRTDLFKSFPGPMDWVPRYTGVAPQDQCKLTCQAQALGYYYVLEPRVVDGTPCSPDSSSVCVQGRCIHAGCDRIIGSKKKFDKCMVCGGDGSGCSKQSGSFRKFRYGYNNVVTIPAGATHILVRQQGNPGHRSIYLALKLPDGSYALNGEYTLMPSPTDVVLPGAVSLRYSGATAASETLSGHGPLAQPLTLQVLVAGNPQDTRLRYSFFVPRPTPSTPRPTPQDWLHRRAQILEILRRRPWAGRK
Summary of the method: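 Enzyme and compound incubated with aggrecan-containing polyacrylamide particles in Tris-HCl buffer at 37° C for 15 h. Released GAG in supernatant measured with 1,9-dimethylmethylene blue at 595 nm against chondroitin sulfate standard; % inhibition from enzyme-free and inhibitor-free wells, reported as TC50 (μM).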

SMILES | IC50 (Recombinant Human MMP-13) [nM] | IC50 (MMP-1) [nM] | IC50 (aggrecanase-1) [nM]
CNC(=O)Cc1ccc([C@@H]2C[C@]2(NS(=O)(=O)c2ccc(-c3cc(C(F)(F)F)on3)s2)C(=O)O)cc1 [Example 2-293] | < 100 | < 1000 | < 100
CN1CCN(C(=O)Cc2ccc([C@@H]3C[C@]3(NS(=O)(=O)c3ccc(-c4cc(C(F)(F)F)on4)s3)C(=O)O)cc2)CC1 [Example 2-294] | < 100 | ≥ 1000 | < 100
NC(=O)OCCC1(c2ccccc2)CC1(NS(=O)(=O)c1ccc(-c2ccc(Cl)cc2)s1)C(=O)O (stereo not drawn) [Example 2-295] | < 100 | ≥ 1000 | < 100
CC1[C@H](c2ccccc2)[C@]1(NS(=O)(=O)c1ccc(-c2cc(C(F)(F)F)on2)s1)C(N)=O (stereo partly drawn) [Example 2-296] | ≥ 1000 | ≥ 10000 | ≥ 1000
CNC(=O)[C@]1(NS(=O)(=O)c2ccc(-c3cc(C(F)(F)F)on3)s2)C(C)[C@@H]1c1ccccc1 (stereo partly drawn) [Example 2-297] | ≥ 1000 | ≥ 10000 | ≥ 1000
O=C(NCCCC1(c2ccccc2)CC1(NS(=O)(=O)c1ccc(-c2ccc(Cl)cc2)s1)C(=O)O)OC1CCCC1 (stereo not drawn) [Example 2-298] | < 100 | ≥ 1000 | < 100
CCC1C(c2ccccc2)C1(NS(=O)(=O)c1ccc(-c2cc(C(F)(F)F)on2)s1)C(=O)O (stereo not drawn) [Example 2-299] | < 100 | < 100 | < 100
NCCc1ccc([C@H]2C[C@@]2(NS(=O)(=O)c2ccc(-c3cc(C(F)(F)F)on3)s2)C(N)=O)cc1 [Example 2-300] | < 100 | ≥ 1000 | < 1000
O=C(O)[C@@]1(NS(=O)(=O)c2ccc(-c3cc(C(F)(F)F)on3)s2)C[C@H]1c1ccc(CCO)cc1 [Example 2-301] | < 100 | ≥ 1000 | < 100
O=C(O)[C@]1(NS(=O)(=O)c2ccc(-c3cc(C(F)(F)F)on3)s2)C[C@@H]1c1ccc(CCCO)cc1 [Example 2-302] | < 100 | < 1000 | < 100
CN(C)C(=O)OCCC1(c2ccccc2)CC1(NS(=O)(=O)c1ccc(-c2ccc(Cl)cc2)s1)C(=O)O (stereo not drawn) [Example 2-303] | < 100 | ≥ 1000 | < 100
CC(C)N1CCN(Cc2cccc([C@H]3C[C@@]3(NS(=O)(=O)c3ccc(-c4cc(C(F)(F)F)on4)s3)C(=O)O)c2)CC1 [Example 2-304] | < 1000 | ≥ 1000 | < 1000
O=C(O)C1(NS(=O)(=O)c2ccc(-c3cc(C(F)(F)F)on3)s2)C2CCCc3ccccc3C21 (stereo not drawn) [Example 2-305] | < 100 | ≥ 1000 | < 100
O=C(OCC1(c2ccccc2)CC1(NS(=O)(=O)c1ccc(-c2cc(C(F)(F)F)on2)s1)C(=O)O)N1CCOCC1 (stereo not drawn) [Example 2-306] | < 1000 | ≥ 1000 | < 1000
O=C(c1ccc(Cl)cc1)c1ccc(S(=O)(=O)N[C@@]2(C(=O)O)C[C@@H]2c2ccccc2)s1 [Example 2-307] | ≥ 1000 | ≥ 10000 | ≥ 1000
CC(C)OCCNC(=O)OCC1(c2ccccc2)CC1(NS(=O)(=O)c1ccc(-c2cc(C(F)(F)F)on2)s1)C(=O)O (stereo not drawn) [Example 2-308] | < 1000 | ≥ 1000 | < 1000
O=C(NC[C@H]1CCCO1)OCC1(c2ccccc2)CC1(NS(=O)(=O)c1ccc(-c2cc(C(F)(F)F)on2)s1)C(=O)O (stereo partly drawn) [Example 2-309] | < 1000 | ≥ 1000 | < 1000

SMILES | IC50 (Recombinant Human MMP-13) [nM] | IC50 (MMP-1) [nM] | IC50 (aggrecanase-1) [nM]
O=C(OCC1(c2ccccc2)CC1(NS(=O)(=O)c1ccc(-c2cc(C(F)(F)F)on2)s1)C(=O)O)N1CCCCC1 (stereo not drawn) [Example 2-310] | < 100 | < 1000 | < 1000
Cc1cc(C2CC2(NS(=O)(=O)c2ccc(-c3cc(C(F)(F)F)on3)s2)C(=O)O)on1 (stereo not drawn) [Example 2-311] | < 1000 | ≥ 1000 | < 1000
O=C1OCC2C(c3ccccc3)C12NS(=O)(=O)c1ccc(-c2cc(C(F)(F)F)on2)s1 (stereo not drawn) [Example 2-312] | ≥ 10000 | ≥ 10000 | ≥ 1000
Cc1cc(C2CC2(NS(=O)(=O)c2ccc(-c3cc(C(F)(F)F)on3)s2)C(=O)O)no1 (stereo not drawn) [Example 2-313] | < 1000 | ≥ 1000 | < 1000
Cc1cc(C2CC2(NS(=O)(=O)c2ccc(-c3cc(C(F)(F)F)on3)s2)C(=O)O)no1 (stereo not drawn) [Example 2-314] | ≥ 10000 | ≥ 10000 | ≥ 1000
O=C(O)C1(NS(=O)(=O)c2ccc(-c3cc(C(F)(F)F)on3)s2)CC1c1cc(CCO)on1 (stereo not drawn) [Example 2-315] | < 1000 | ≥ 10000 | < 1000
O=C(O)C1(NS(=O)(=O)c2ccc(-c3cc(C(F)(F)F)on3)s2)CC1c1cc(CCO)on1 (stereo not drawn) [Example 2-316] | ≥ 10000 | ≥ 10000 | ≥ 1000
O=C(O)C1(NS(=O)(=O)c2ccc(-c3cc(C(F)(F)F)on3)s2)CC1c1cc(CO)on1 (stereo not drawn) [Example 2-317] | < 1000 | ≥ 1000 | < 1000
O=C(O)C1(NS(=O)(=O)c2ccc(-c3cc(C(F)(F)F)on3)s2)CC1c1cc(CO)on1 (stereo not drawn) [Example 2-318] | ≥ 10000 | ≥ 10000 | ≥ 1000
CC(C)C(=O)NCCCC1(c2ccccc2)CC1(NS(=O)(=O)c1ccc(-c2ccc(Cl)cc2)s1)C(=O)O (stereo not drawn) [Example 2-319] | < 100 | ≥ 1000 | < 100
CN(C)C(=O)OCC1(c2ccccc2)CC1(NS(=O)(=O)c1ccc(-c2cc(C(F)(F)F)on2)s1)C(=O)O (stereo not drawn) [Example 2-320] | < 1000 | ≥ 1000 | < 1000
CCNC(=O)OCC1(c2ccccc2)CC1(NS(=O)(=O)c1ccc(-c2cc(C(F)(F)F)on2)s1)C(=O)O (stereo not drawn) [Example 2-321] | < 1000 | ≥ 1000 | < 1000
O=C(O)C1(NS(=O)(=O)c2ccc(-c3cc(C(F)(F)F)on3)s2)CC1(CN1CCOCC1)c1ccccc1 (stereo not drawn) [Example 2-322] | < 1000 | ≥ 1000 | < 100
CC1[C@H](c2ccccc2)[C@]1(NS(=O)(=O)c1ccc(-c2cc(C(F)(F)F)on2)s1)C(=O)NO (stereo partly drawn) [Example 2-323] | < 100 | ≥ 1000 | ≥ 1000
CC1[C@H](c2ccccc2)[C@]1(NS(=O)(=O)c1ccc(OCc2ccc(Cl)cc2Cl)cc1)C(=O)O (stereo partly drawn) [Example 2-324] | ≥ 1000 | ≥ 10000 | ≥ 1000
CC1[C@H](c2ccccc2)[C@]1(NS(=O)(=O)c1ccc(OCc2ccc(Cl)cc2Cl)cc1)C(=O)NO (stereo partly drawn) [Example 2-325] | ≥ 1000 | ≥ 10000 | ≥ 1000
